Source: patent US11952374B2, “Bicyclic compounds” (Aligos Therapeutics, Inc., priority 2020, dated 2024)
Read-outs that look alike come from different tables or passages of the source.

What was measured:
HBV = test: HBV-DNA antiviral assay using HepG2.117 cells (intracellular HBV DNA by qPCR); assay type: cell-based, HBV genotype D
Experimental: (§1) The following assay procedure describes the HBV antiviral assay, using HepG2.117 cells, which carry a stably integrated genotype D HBV genome under the control of a Tet-off promoter, and intracellular HBV DNA quantification as endpoint. Cell viability is assessed in parallel by measuring the intracellular ATP content using CellTiter-Glo 2.0 (Promega).
On day 0, HepG2.117 cells (which are maintained in routine cell culture with doxycycline present in the medium at a final concentration of 1 μg/mL) are seeded in 96-well plates (white with clear bottom) at a density of 2.0×10^4 cells/well (0.1 mL/well) in medium without doxycycline to induce pgRNA transcription and subsequent formation of HBV particles. The cells are incubated at 37° C. and 5% CO2.
(§2) On day 1, medium is removed from each well, the test articles are diluted in culture medium without doxcycyline and 100 μL was added to cell culture wells (9 concentrations, 4-fold dilution). For each plate, 6 untreated (merely DMSO) wells are included. The final concentration of DMSO in the culture medium is 2%. Each plate is prepared in duplicate (one for HBV DNA extraction, one for CellTiter-Glo 2.0 measurement). The cells are incubated at 37° C. and 5% CO2 for 3 days.
(§3) On day 4, cell viability is assessed using CellTiter-Glo 2.0 and cell lysates are prepared for HBV DNA extraction and subsequent quantification by qPCR.
Medium is removed from each well and 100 μL of 0.33% NP-40 in H2O was added to each well. Plates are sealed, incubated at 4° C. for 5 mins, vortexed extensively and centrifuged briefly. Next, 35 μL of lysate is added to 65 μL QuickExtract DNA Extraction Solution (Epicentre) in a PCR plate for each well. PCR plate is incubated at 65° C. for 6 mins, 98° C. for 2 mins and finally cooled to 4° C. HBV DNA is then quantified by qPCR with HBV-specific primers and probes as specified in Table 2 using the Bio-Rad SSOAdvanced Universal Probes Supermix on a CFX96 machine (Bio-Rad). The PCR cycle program consisted of 95° C. for 3 mins, followed by 40 cycles at 95° C. for 10 sec and 60° C. for 30 sec.
A DNA standard is prepared by dilution of an IDT gBlock corresponding to the amplicon with concentrations ranging from 10^A2 to 10^A8 copies/input (i.e. per 4 μL) and used to generate a standard curve by plotting Cq values vs. HBV DNA standard concentration. The quantity of HBV DNA in each sample is determined by interpolating from the standard curve.
(§4) Cell viability is calculated as follows: % Cell viability=(luminescence value of test sample)/(average luminescence value of 2% DMSO control)×100%. HBV DNA inhibition was calculated as follows: 100−(HBV DNA copy number of test sample)/(average HBV DNA copy number of 2% DMSO control)×100%. No normalization to entecavir is required due to the excellent dynamic window of this assay. The CC50, EC50 and EC90 values were determined by dose-response curves fitted using non-linear regression.

[1] = Cell viability by CellTiter-Glo 2.0 (intracellular ATP) in HepG2.117 cells; assay type: cell-based; conditions: human, CellTiter-Glo 2.0, 3 days incubation
Experimental: as §1, §2, §3
(§5) Using the other plates, the cell viability is quantified by CellTiter-Glo 2.0 according to the manufacturer's manual. In brief, 100 μL of reagent solution is added to the culture plates and shaken for 2′. The plates are incubated at room temperature for 10 min and luminescence signal is subsequently measured on a VarioSkan Lux (ThermoFisher) plate reader.
as §4

HepG2.117 cells = test: as above; assay type: cell-based; conditions: CellTiter-Glo 2.0, 3 days incubation
Experimental: as §1, §2, §3, §5, §4

[2] = Hepatitis B virus, 72 h, HBV DNA inhibition, HepG2.117 cells, 3 days incubation, read-out: EC50
[3] = HBV DNA inhibition, HepG2.117 cells, 3 days incubation, read-out: EC50
[4] = Hepatitis B virus, HepG2.117, 72 h

Row | SMILES | EC50 (HBV; [2]) [µM] | CC50 at 3 days [1] [µM] | EC50 (HBV; [3]) [µM] | CC50 (HepG2.117 cells) [µM] | EC50 (HBV; [4]) [µM]
1 | CNC(=O)c1ccc(-n2c(NCc3ccccc3-c3ccccn3)nc3c(c2=O)C[C@@H](C)N(C(=O)c2ccc(Br)c(C(F)(F)F)c2)C3)c(Cl)c1 (single isomer, unassigned) [Compound 1a] | < 0.05 | > 50 |  |  | 
2 | CNC(=O)c1ccc(-n2c(NCc3ccccc3-c3ccccn3)nc3c(c2=O)C[C@@H](C)N(C(=O)c2ccc(Br)c(C(F)(F)F)c2)C3)c(Cl)c1 (single isomer, unassigned) [Compound 1b] |  |  | < 0.05 | > 50 | 
3 | CNC(=O)c1ccc(-n2c([C@@H]3CCCN3C(C)C)nc3c(c2=O)CC(C)N(C(=O)c2ccc(Br)c(C(F)(F)F)c2)C3)cc1 (single isomer, unassigned) [Compound 11a] | 0.5 to 5 | > 50 |  |  | 
4 | CNC(=O)c1ccc(-n2c([C@@H]3CCCN3C(C)C)nc3c(c2=O)CC(C)N(C(=O)c2ccc(Br)c(C(F)(F)F)c2)C3)cc1 (single isomer, unassigned) [Compound 11b] |  |  | 0.5 to 5 | > 50 | 
5 | CNC(=O)c1ccc(-n2c(-n3ccc(C(C)C)n3)nc3c(c2=O)C[C@@H](C)N(C(=O)c2ccc(Br)c(C(F)(F)F)c2)C3)cc1 [Compound 2, (R)-4-(7-(4-bromo-3-(trifluoromethyl)benzoyl)-2-(3-isopropyl-1H-pyrazol-1-yl)-6-methyl-4-oxo-5,6,7,8-tetrahydropyrido[3,4-d]pyrimidin-3(4H)-yl)-N-methylbenzamide] | < 0.05 | > 50 |  |  | 
6 | CNC(=O)c1ccc(-n2c(N(Cc3ccccc3)C3CC(F)(F)C3)nc3c(c2=O)C[C@@H](C)N(C(=O)c2ccc(Br)c(C(F)(F)F)c2)C3)cc1 [Compound 3, (R)-4-(2-(benzyl(3,3-difluorocyclobutyl)amino)-7-(4-bromo-3-(trifluoromethyl)benzoyl)-6-methyl-4-oxo-5,6,7,8-tetrahydropyrido[3,4-d]pyrimidin-3(4H)-yl)-N-methylbenzamide] | < 0.05 | > 50 |  |  | 
7 | CNC(=O)c1ccc(-n2c(N(Cc3ccccc3)CC3CC3)nc3c(c2=O)C[C@@H](C)N(C(=O)c2ccc(Br)c(C(F)(F)F)c2)C3)cc1 [Compound 4, (R)-4-(2-(benzyl(cyclopropylmethyl)amino)-7-(4-bromo-3-(trifluoromethyl)benzoyl)-6-methyl-4-oxo-5,6,7,8-tetrahydropyrido[3,4-d]pyrimidin-3(4H)-yl)-N-methylbenzamide] | < 0.05 | > 50 |  |  | 
8 | CNC(=O)c1ccc(-n2c(N(Cc3ccccc3)C3CCC3)nc3c(c2=O)C[C@@H](C)N(C(=O)c2ccc(Br)c(C(F)(F)F)c2)C3)cc1 [Compound 5, (R)-4-(2-(benzyl(cyclobutyl)amino)-7-(4-bromo-3-(trifluoromethyl)benzoyl)-6-methyl-4-oxo-5,6,7,8-tetrahydropyrido[3,4-d]pyrimidin-3(4H)-yl)-N-methylbenzamide] |  | > 0.5 |  |  | < 0.05
9 | CNC(=O)c1ccc(-n2c(-n3cccn3)nc3c(c2=O)C[C@@H](C)N(C(=O)c2ccc(Br)c(C(F)(F)F)c2)C3)cc1 [Compound 6, (R)-4-(7-(4-bromo-3-(trifluoromethyl)benzoyl)-6-methyl-4-oxo-2-(1H-pyrazol-1-yl)-5,6,7,8-tetrahydropyrido[3,4-d]pyrimidin-3(4H)-yl)-N-methylbenzamide] | < 0.05 | > 50 |  |  | 
10 | COc1ccc(-n2c(-c3ccccc3)nc3c(c2=O)CCN(C(=O)c2ccc(Br)c(C(F)(F)F)c2)C3)cc1 [Compound 7, 7-(4-bromo-3-(trifluoromethyl)benzoyl)-3-(4-methoxyphenyl)-2-phenyl-5,6,7,8-tetrahydropyrido[3,4-d]pyrimidin-4(3H)-one] |  | > 0.5 |  |  | 0.5 to 5
11 | CNC(=O)c1ccc(-n2c(-c3cccc(C(C)C)n3)nc3c(c2=O)C[C@@H](C)N(C(=O)c2ccc(Br)c(C(F)(F)F)c2)C3)cc1 [Compound 8, (R)-4-(7-(4-bromo-3-(trifluoromethyl)benzoyl)-2-(6-isopropylpyridin-2-yl)-6-methyl-4-oxo-5,6,7,8-tetrahydropyrido[3,4-d]pyrimidin-3(4H)-yl)-N-methylbenzamide] | < 0.05 | 30 |  |  | 
12 | CNC(=O)c1ccc(-n2c(-n3cc(C4CC4)cn3)nc3c(c2=O)C[C@@H](C)N(C(=O)c2ccc(Br)c(C(F)(F)F)c2)C3)cc1 [Compound 9, (R)-4-(7-(4-bromo-3-(trifluoromethyl)benzoyl)-2-(4-cyclopropyl-1H-pyrazol-1-yl)-6-methyl-4-oxo-5,6,7,8-tetrahydropyrido[3,4-d]pyrimidin-3(4H)-yl)-N-methylbenzamide] | 0.05 to 0.5 | 27.8 |  |  | 
13 | CNC(=O)c1ccc(-n2c(-n3ccc(C4CC4)n3)nc3c(c2=O)C[C@@H](C)N(C(=O)c2ccc(Br)c(C(F)(F)F)c2)C3)cc1 [Compound 10, (R)-4-(7-(4-bromo-3-(trifluoromethyl)benzoyl)-2-(3-cyclopropyl-1H-pyrazol-1-yl)-6-methyl-4-oxo-5,6,7,8-tetrahydropyrido[3,4-d]pyrimidin-3(4H)-yl)-N-methylbenzamide] | < 0.05 | > 50 |  |  | 
14 | CNC(=O)c1ccc(-n2c(N(CC3CC3)c3ccccc3)nc3c(c2=O)C[C@@H](C)N(C(=O)c2ccc(Br)c(C(F)(F)F)c2)C3)cc1 [Compound 12, (R)-4-(7-(4-bromo-3-(trifluoromethyl)benzoyl)-2-((cyclopropylmethyl)(phenyl)amino)-6-methyl-4-oxo-5,6,7,8-tetrahydropyrido[3,4-d]pyrimidin-3(4H)-yl)-N-methylbenzamide] | < 0.05 | 10.8 |  |  | 
15 | CNC(=O)c1ccc(-n2c(N(Cc3ccccc3)C3CN(C)C3)nc3c(c2=O)C[C@@H](C)N(C(=O)c2ccc(Br)c(C(F)(F)F)c2)C3)cc1 [Compound 13, (R)-4-(2-(benzyl(1-methylazetidin-3-yl)amino)-7-(4-bromo-3-(trifluoromethyl)benzoyl)-6-methyl-4-oxo-5,6,7,8-tetrahydropyrido[3,4-d]pyrimidin-3(4H)-yl)-N-methylbenzamide] | 0.5 to 5 | 27 |  |  | 
16 | CNC(=O)c1ccc(-n2c(-n3ccc(CC(C)C)n3)nc3c(c2=O)C[C@@H](C)N(C(=O)c2ccc(Br)c(C(F)(F)F)c2)C3)cc1 [Compound 14] | < 0.05 | > 50 |  |  | 
17 | CCc1ccn(-c2nc3c(c(=O)n2-c2ccc(C(=O)NC)cc2)C[C@@H](C)N(C(=O)c2ccc(Br)c(C(F)(F)F)c2)C3)n1 [Compound 15] | < 0.05 | > 50 |  |  | 
18 | CNC(=O)c1ccc(-n2c(-n3cc(CC(C)C)cn3)nc3c(c2=O)C[C@@H](C)N(C(=O)c2ccc(Br)c(C(F)(F)F)c2)C3)cc1 [Compound 16] | 0.05 to 0.5 | > 50 |  |  | 
19 | CNC(=O)c1ccc(-n2c(C3CCN(C(=O)OC(C)(C)C)C3)nc3c(c2=O)CC(C)N(C(=O)c2ccc(Br)c(C(F)(F)F)c2)C3)cc1 (stereo not drawn) [Compound 17, t-butyl 3-(7-(4-bromo-3-(trifluoromethyl)benzoyl)-6-methyl-3-(4-(methylcarbamoyl)phenyl)-4-oxo-3,4,5,6,7,8-hexahydropyrido[3,4-d]pyrimidin-2-yl)pyrrolidine-1-carboxylate] | 0.05 to 0.5 | 24.2 |  |  | 
20 | CCN1CCC(c2nc3c(c(=O)n2-c2ccc(C(=O)NC)cc2)CC(C)N(C(=O)c2ccc(Br)c(C(F)(F)F)c2)C3)C1 (stereo not drawn) [Compound 18, 4-(7-(4-bromo-3-(trifluoromethyl)benzoyl)-2-(1-ethylpyrrolidin-3-yl)-6-methyl-4-oxo-5,6,7,8-tetrahydropyrido[3,4-d]pyrimidin-3(4H)-yl)-N-methylbenzamide] | > 5 | > 50 |  |  | 
21 | CNC(=O)c1ccc(-n2c(-n3ccc(C)n3)nc3c(c2=O)C[C@@H](C)N(C(=O)c2ccc(Br)c(C(F)(F)F)c2)C3)cc1 [Compound 19] | < 0.05 | > 50 |  |  | 
